Activity calls are given as the source filed them. The rule behind the calls is not given here.
Legend:
Activated CDC42 kinase 1 [1] = target: T1, Activated CDC42 kinase 1 (Homo sapiens, UniProt Q07912); test: Inhibition of N-terminal His6-tagged ACK1 expressed in baculovirus infected Hi5 cells assessed as inhibition of autophosphorylation after 2 hrs by ELISA; set-up: species or system BTI-TN-5B1-4
Target sequence in this assay (Q07912 whole entry): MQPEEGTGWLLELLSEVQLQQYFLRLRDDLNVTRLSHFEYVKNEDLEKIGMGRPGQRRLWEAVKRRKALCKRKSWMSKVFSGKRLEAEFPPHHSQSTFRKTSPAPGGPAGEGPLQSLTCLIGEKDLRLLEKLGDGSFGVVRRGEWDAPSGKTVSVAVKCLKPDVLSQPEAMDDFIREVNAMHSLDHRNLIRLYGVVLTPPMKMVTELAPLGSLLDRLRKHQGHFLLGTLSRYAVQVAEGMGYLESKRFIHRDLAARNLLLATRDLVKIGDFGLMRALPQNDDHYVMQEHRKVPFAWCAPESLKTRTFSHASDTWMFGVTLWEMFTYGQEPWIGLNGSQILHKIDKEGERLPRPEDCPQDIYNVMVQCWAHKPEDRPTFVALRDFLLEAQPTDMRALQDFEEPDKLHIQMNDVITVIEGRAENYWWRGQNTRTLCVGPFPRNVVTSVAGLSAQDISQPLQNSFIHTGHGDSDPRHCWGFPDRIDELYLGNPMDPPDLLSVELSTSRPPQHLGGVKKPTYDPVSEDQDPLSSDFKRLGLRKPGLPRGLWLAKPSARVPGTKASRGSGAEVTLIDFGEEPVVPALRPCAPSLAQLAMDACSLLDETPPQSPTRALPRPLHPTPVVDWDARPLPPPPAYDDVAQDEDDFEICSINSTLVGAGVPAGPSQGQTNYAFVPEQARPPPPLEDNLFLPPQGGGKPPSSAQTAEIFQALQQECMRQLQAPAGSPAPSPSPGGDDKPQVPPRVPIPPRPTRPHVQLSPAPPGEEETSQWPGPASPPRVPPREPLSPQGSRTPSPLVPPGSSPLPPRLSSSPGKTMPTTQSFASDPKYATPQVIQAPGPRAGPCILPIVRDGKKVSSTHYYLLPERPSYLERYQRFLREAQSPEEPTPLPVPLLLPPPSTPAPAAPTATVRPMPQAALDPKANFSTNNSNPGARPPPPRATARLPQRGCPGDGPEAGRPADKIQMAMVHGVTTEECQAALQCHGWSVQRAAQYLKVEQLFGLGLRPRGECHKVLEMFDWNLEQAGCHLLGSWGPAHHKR

[2] = Drug metabolism in rat liver S9 fraction assessed as dimethylamino oxidation; type: ADME, subcellular
[3] = Clearance in Sprague-Dawley rat at 1 mg/kg, iv; type: ADME, organism-based; set-up: dose 1 mg/kg, route intravenous; settings: in vivo
[4] = Drug metabolism in rat liver S9 fraction assessed as dithiolane ring oxidation; type: ADME, subcellular
[5] = Mean residence time in Sprague-Dawley rat at 1 mg/kg, iv; type: ADME, organism-based; set-up: dose 1 mg/kg, route intravenous; settings: in vivo
[6] = Volume of distribution at steady state in Sprague-Dawley rat at 1 mg/kg, iv; type: ADME, organism-based; set-up: dose 1 mg/kg, route intravenous; settings: in vivo, read-out: Vdss
Activated CDC42 kinase 1 [7] = target: Activated CDC42 kinase 1 (Mus musculus, UniProt O54967); test: Inhibition of ACK1 in mouse C8 cells assessed as decrease in cell viability after 20 to 24 hrs; type: cell-based
[8] = target: Vascular endothelial growth factor receptor 2 (Homo sapiens, UniProt P35968); test: Inhibition of KDR
[9] = target: T2, Tyrosine-protein kinase JAK3 (Homo sapiens, UniProt P52333); test: Inhibition of JAK3
T2 sequence (P52333 whole entry): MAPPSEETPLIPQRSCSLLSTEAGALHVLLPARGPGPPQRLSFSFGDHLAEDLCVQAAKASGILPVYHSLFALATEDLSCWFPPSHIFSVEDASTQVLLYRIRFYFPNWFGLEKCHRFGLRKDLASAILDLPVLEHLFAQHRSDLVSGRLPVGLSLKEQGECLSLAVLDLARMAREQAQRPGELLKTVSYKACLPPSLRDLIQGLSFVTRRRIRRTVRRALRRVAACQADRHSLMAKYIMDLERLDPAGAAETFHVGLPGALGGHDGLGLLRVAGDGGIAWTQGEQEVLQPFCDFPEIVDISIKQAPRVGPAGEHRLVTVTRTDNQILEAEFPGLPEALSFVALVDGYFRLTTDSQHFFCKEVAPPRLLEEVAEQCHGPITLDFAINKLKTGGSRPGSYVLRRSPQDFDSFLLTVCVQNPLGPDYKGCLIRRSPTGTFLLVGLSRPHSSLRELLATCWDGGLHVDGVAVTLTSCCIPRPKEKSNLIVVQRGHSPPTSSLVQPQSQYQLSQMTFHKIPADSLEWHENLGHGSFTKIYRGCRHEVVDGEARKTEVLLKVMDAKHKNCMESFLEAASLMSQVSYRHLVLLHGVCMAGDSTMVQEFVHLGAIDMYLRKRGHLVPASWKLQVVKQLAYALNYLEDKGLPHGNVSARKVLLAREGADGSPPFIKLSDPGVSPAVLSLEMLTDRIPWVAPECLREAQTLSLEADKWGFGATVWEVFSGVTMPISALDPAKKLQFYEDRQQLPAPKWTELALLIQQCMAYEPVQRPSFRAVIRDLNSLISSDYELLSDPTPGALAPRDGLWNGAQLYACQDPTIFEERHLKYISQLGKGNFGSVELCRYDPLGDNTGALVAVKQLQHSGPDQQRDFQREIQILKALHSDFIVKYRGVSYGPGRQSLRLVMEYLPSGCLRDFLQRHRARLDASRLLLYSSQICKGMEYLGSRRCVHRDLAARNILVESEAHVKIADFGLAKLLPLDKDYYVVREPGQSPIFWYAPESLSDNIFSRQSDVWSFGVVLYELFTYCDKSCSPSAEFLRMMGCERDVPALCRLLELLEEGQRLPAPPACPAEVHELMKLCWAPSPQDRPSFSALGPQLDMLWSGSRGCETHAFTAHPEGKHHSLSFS

Angiopoietin-1 receptor = Angiopoietin-1 receptor (Homo sapiens, UniProt Q02763); test: Inhibition of TIE2
[10] = target: Tyrosine-protein kinase Lck (Homo sapiens, UniProt P06239); test: Inhibition of LCK
Activated CDC42 kinase 1 [11] = target: T1, Activated CDC42 kinase 1; test: Competitive inhibition of ACK1 using ATP
Target sequence in this assay (Q07912 whole entry, looked up): as the sequence (Q07912 whole entry) above

Activated CDC42 kinase 1 [12] = target: T1, Activated CDC42 kinase 1; test: Reversible inhibition of ACK1
Target sequence in this assay (Q07912 whole entry, looked up): as the sequence (Q07912 whole entry) above

Activated CDC42 kinase 1 [13] = target: T1, Activated CDC42 kinase 1; test: Inhibition of ACK1
Target sequence in this assay (Q07912 whole entry): as the sequence (Q07912 whole entry) above

Angiopoietin-1 receptor, sequence (Q02763 whole entry): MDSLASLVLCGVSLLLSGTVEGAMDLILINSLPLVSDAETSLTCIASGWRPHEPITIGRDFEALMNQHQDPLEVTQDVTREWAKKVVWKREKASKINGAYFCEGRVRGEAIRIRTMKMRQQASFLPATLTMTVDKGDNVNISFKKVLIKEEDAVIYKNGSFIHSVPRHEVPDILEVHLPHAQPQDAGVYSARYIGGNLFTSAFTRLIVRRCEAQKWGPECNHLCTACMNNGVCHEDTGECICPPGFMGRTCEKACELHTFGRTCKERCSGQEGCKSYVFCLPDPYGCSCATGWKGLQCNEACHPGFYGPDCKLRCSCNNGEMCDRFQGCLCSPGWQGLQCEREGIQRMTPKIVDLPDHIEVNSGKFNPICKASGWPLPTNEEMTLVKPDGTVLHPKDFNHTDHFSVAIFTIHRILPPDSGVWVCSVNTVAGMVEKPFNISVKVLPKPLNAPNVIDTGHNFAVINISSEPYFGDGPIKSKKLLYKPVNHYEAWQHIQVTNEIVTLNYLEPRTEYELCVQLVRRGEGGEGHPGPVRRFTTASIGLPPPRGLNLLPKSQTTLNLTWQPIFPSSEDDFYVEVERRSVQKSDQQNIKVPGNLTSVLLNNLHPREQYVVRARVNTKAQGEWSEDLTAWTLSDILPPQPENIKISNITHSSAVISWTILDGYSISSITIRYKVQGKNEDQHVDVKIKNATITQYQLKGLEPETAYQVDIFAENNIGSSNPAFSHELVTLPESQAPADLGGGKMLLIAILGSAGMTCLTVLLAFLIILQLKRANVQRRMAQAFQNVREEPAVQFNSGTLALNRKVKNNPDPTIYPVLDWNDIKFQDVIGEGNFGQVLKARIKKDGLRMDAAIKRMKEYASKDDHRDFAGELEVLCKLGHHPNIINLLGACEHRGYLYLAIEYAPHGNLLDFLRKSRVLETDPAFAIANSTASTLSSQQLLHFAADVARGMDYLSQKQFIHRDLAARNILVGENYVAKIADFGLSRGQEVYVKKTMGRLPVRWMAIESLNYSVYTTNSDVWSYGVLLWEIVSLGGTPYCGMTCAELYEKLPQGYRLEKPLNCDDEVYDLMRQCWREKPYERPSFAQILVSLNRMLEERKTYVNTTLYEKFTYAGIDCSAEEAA
Activated CDC42 kinase 1 (Mus musculus, UniProt O54967), sequence (O54967 whole entry): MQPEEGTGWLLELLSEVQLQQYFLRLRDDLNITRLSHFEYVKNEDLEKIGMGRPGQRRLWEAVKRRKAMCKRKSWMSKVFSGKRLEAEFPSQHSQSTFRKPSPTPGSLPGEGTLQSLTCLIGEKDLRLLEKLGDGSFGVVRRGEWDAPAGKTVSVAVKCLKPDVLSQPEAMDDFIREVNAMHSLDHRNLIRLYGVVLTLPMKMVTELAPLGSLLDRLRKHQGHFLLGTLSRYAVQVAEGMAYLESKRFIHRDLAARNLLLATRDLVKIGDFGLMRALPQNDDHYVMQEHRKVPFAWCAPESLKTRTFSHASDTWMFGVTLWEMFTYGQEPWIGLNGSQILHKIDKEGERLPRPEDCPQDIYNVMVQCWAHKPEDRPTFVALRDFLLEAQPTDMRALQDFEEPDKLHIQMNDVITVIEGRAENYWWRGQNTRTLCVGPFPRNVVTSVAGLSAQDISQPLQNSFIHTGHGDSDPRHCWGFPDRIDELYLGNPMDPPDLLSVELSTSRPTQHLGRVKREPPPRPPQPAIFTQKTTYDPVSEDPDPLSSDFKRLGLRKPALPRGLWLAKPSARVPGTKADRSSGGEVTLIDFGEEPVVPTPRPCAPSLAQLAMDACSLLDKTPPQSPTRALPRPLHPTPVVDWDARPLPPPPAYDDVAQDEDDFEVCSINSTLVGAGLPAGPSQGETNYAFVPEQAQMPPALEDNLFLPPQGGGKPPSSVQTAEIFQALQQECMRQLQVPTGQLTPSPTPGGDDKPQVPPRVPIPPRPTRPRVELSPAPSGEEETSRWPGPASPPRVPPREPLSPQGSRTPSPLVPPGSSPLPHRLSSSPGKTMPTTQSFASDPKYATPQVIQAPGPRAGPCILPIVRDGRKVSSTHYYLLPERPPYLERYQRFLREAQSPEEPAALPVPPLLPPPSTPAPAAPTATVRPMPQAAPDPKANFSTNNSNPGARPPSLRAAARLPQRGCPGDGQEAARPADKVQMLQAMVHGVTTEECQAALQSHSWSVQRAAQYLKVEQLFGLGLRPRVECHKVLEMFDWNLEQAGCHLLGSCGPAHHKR
Tyrosine-protein kinase Lck, sequence (P06239 whole entry): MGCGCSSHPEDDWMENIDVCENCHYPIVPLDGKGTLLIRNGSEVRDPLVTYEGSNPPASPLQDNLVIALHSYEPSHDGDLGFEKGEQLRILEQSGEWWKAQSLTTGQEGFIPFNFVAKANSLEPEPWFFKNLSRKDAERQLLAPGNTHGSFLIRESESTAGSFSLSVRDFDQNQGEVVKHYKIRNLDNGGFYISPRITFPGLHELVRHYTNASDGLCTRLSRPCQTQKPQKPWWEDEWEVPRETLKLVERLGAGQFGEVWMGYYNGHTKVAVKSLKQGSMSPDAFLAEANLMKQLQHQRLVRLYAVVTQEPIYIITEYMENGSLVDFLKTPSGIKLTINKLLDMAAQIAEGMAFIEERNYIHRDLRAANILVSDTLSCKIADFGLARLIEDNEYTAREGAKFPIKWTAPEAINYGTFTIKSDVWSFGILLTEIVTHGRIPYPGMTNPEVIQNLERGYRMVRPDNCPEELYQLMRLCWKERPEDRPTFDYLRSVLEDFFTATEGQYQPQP

Compound	Ki (Activated CDC42 kinase 1 [1])	further results
CN(C)CCOc1ccc(-c2oc3ncnc(NCC4OCCO4)c3c2-c2ccccc2)cc1	13 nM	
c1ccc(-c2c(-c3ccc(OCCN4CCCC4)cc3)[nH]c3ncnc(NC[C@@H]4CCCO4)c23)cc1	6 nM	
c1cncc(-c2c(-c3ccc(OCCN4CCCC4)cc3)[nH]c3ncnc(NC[C@@H]4CCCO4)c23)c1	40 nM	
CO[C@@H]1CC[C@H]1CNc1ncnc2[nH]c(-c3ccc(OCCN(C)C)cc3)c(-c3ccccc3)c12 (racemic)	20 nM	
COc1ccc(-c2oc3ncnc(NC[C@@H]4CCCO4)c3c2-c2ccccc2)cc1	5 nM	
COc1ccc(-c2[nH]c3ncnc(NC[C@@H]4CCCO4)c3c2-c2ccccc2)cc1	6 nM	
CO[C@@H]1CCC[C@@H]1CNc1ncnc2[nH]c(-c3ccc(OCCN(C)C)cc3)c(-c3ccccc3)c12	50 nM	
c1ccc(-c2nc3ncnc(NC[C@@H]4CCCO4)c3n2-c2ccccc2)cc1	7300 nM	
c1ccc(-c2c(-c3ccc(OCCN4CCOCC4)cc3)[nH]c3ncnc(NC[C@@H]4CCCO4)c23)cc1	6 nM	
CN(C)CCOc1ccc(-c2[nH]c3ncnc(NCC4SCCS4)c3c2-c2ccccc2)cc1		Drug metabolism [2]: Active; clearance [3]: 125 mL/min/kg; Drug metabolism [4]: Active; MRT [5]: 3.6 h; Vd [6]: 26.6 L/kg
CN(C)CCOc1ccc(-c2[nH]c3ncnc(NC[C@@H]4CCCO4)c3c2C2=CCCC2)cc1	20 nM	
O=C1CCCN1CCOc1ccc(-c2[nH]c3ncnc(NC[C@@H]4CCCO4)c3c2-c2ccccc2)cc1	4 nM	
c1ccc(-c2[nH]c3ncnc(NC[C@@H]4CCCO4)c3c2-c2ccccc2)cc1	6 nM	
Fc1ccccc1-c1c(-c2ccc(OCCN3CCCC3)cc2)[nH]c2ncnc(NC[C@@H]3CCCO3)c12	4 nM	
O=C1CCCN1CCOc1ccc(-c2oc3ncnc(NC[C@@H]4CCCO4)c3c2-c2ccccc2)cc1	4 nM	
CN(C)CCOc1ccc(-c2oc3ncnc(NCC4SCCCS4)c3c2-c2ccccc2)cc1	4 nM	
CN(C)CCOc1ccc(-c2oc3ncnc(NCC4SCCS4)c3c2-c2ccccc2)cc1	0.2 nM	
CNS(=O)(=O)c1ccc(-c2[nH]c3ncnc(NC[C@@H]4CCCO4)c3c2-c2ccccc2)cc1	2 nM	
c1ccc(-c2nc3ncnc(NC[C@@H]4CCCO4)n3c2-c2ccccc2)cc1	1800 nM	
CN(C)CCOc1ccc(-c2oc3ncnc(NC[C@@H]4CCCO4)c3c2-c2ccccc2)cc1	5 nM	
CN(C)S(=O)(=O)c1ccc(-c2[nH]c3ncnc(NC[C@@H]4CCCO4)c3c2-c2ccccc2)cc1	2 nM	
c1ccc(-c2sc3ncnc(NC[C@@H]4CCCO4)c3c2-c2ccccc2)cc1	> 10000 nM	
COc1cccc(-c2c(-c3ccc(OCCN4CCCC4)cc3)[nH]c3ncnc(NC[C@@H]4CCCO4)c23)c1	10 nM	
O=C(c1ccc(-c2[nH]c3ncnc(NC[C@@H]4CCCO4)c3c2-c2ccccc2)cc1)N1CCOCC1	6 nM	
c1ccc(-c2c(-c3ccc(OCCN4CCCC4)cc3)[nH]c3ncnc(NCC4SCCS4)c23)cc1	0.3 nM	Ki [8]: 380 nM; Ki [9]: 6.5 nM; clearance [3]: 113 mL/min/kg; Ki (Angiopoietin-1 receptor): 200 nM; MRT [5]: 2.3 h; Vd [6]: 15.6 L/kg; Ki [10]: 138 nM
Cc1ccccc1-c1c(-c2ccc(OCCN3CCCC3)cc2)[nH]c2ncnc(NC[C@@H]3CCCO3)c12	20 nM	
Nc1ncnc2oc(-c3ccccc3)c(-c3ccccc3)c12		inhibition (Activated CDC42 kinase 1 [11]): Active; inhibition (Activated CDC42 kinase 1 [12]): Active; Ki (Activated CDC42 kinase 1 [13]): 1000 nM
O=C(c1ccc(-c2oc3ncnc(NC[C@@H]4CCCO4)c3c2-c2ccccc2)cc1)N1CCOCC1	6 nM	

Further lines, with some results ahead:

Ki (Activated CDC42 kinase 1 [1])	Compound	further results
7 nM	CS(=O)(=O)c1ccc(-c2[nH]c3ncnc(NC[C@@H]4CCCO4)c3c2-c2ccccc2)cc1	
8 nM	CN(C)CCOc1ccc(-c2oc3ncnc(NCC4CCCS4)c3c2-c2ccccc2)cc1 (racemic)	
10 nM	CN(C)C(=O)c1ccc(-c2oc3ncnc(NC[C@@H]4CCCO4)c3c2-c2ccccc2)cc1	
8 nM	CS(=O)(=O)c1ccc(-c2oc3ncnc(NC[C@@H]4CCCO4)c3c2-c2ccccc2)cc1	
50 nM	CO[C@@H]1CCC[C@H]1CNc1ncnc2[nH]c(-c3ccc(OCCN(C)C)cc3)c(-c3ccccc3)c12	
70 nM	c1ccc(-c2oc3nccc(NC[C@@H]4CCCO4)c3c2-c2ccccc2)cc1	
30 nM	CN(C)CCOc1ccc(-c2[nH]c3ncnc(NC[C@@H]4CC[C@H]4O)c3c2-c2ccccc2)cc1 (racemic)	
3 nM	CNC(=O)c1ccc(-c2[nH]c3ncnc(NC[C@@H]4CCCO4)c3c2-c2ccccc2)cc1	
2 nM	CN(C)C(=O)c1ccc(-c2[nH]c3ncnc(NC[C@@H]4CCCO4)c3c2-c2ccccc2)cc1	
4 nM	CNS(=O)(=O)c1ccc(-c2oc3ncnc(NC[C@@H]4CCCO4)c3c2-c2ccccc2)cc1	
4 nM	c1ccc(-c2c(-c3ccc(OCCN4CCOCC4)cc3)oc3ncnc(NC[C@@H]4CCCO4)c23)cc1	
1980 nM	CN(C)CCOc1ccc(-c2[nH]c3ncnc(NC[C@@H]4CCCO4)c3c2C2CC2)cc1	IC50 (Activated CDC42 kinase 1 [7]): Not Active
10 nM	CN(C)CCOc1ccc(-c2[nH]c3ncnc(NC[C@@H]4CCCO4)c3c2C2=CCCCC2)cc1	
13 nM	CNC(=O)c1ccc(-c2oc3ncnc(NC[C@@H]4CCCO4)c3c2-c2ccccc2)cc1	
6 nM	CN(C)CCOc1ccc(-c2[nH]c3ncnc(NC[C@@H]4CCCO4)c3c2-c2ccccc2)cc1	
69 nM	CN(C)CCOc1ccc(-c2oc3ncnc(NC[C@@H]4CCCCS4)c3c2-c2ccccc2)cc1	

Source: ChEMBL document CHEMBL2086246, “Synthesis and optimization of substituted furo[2,3-d]-pyrimidin-4-amines and 7H-pyrrolo[2,3-d]pyrimidin-4-amines as ACK1 inhibitors” (Bioorg Med Chem Lett, 2012)
